Experimental data published in PubChem BioAssay AID248 (DTP/NCI, 2004).
Where “and” joins values, the source holds several entries; their conditions need not be identical. Equal values may be shown once. Inconclusive results and toxic doses are left out. Rule as the data show it: active = T/C of 150% or more; inactive = T/C below 125%.

Test system: L1210 leukemia ip in BDF1 mice, survival T/C
Assay: NCI In Vivo Anticancer Drug Screen. Data for tumor model L1210 Leukemia (intraperitoneal) in B6D2F1 (BDF1) mice
Conditions: endpoint: mean survival time, higher = longer survival
Procedure, shortened: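 Tumor cells were implanted, animals were treated, and survival was followed. The result divides the treated measurement by the vehicle-control measurement.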

[1] = dose: 100.0 mg/kg/injection, schedule: Q04DX003 (ip), vehicle: saline with Tween-80
[2] = dose: 200.0 mg/kg/injection, schedule: Q04DX003 (ip), vehicle: saline with Tween-80
[3] = dose: 400.0 mg/kg/injection, schedule: Q04DX003 (ip), vehicle: saline with Tween-80
[4] = dose: 50.0 mg/kg/injection, schedule: Q01DX009 (ip), vehicle: saline
[5] = dose: 100.0 mg/kg/injection, schedule: Q01DX009 (ip), vehicle: saline
[6] = dose: 100.0 mg/kg/injection, schedule: Q04DX003 (ip), vehicle: saline
[7] = dose: 200.0 mg/kg/injection, schedule: Q04DX003 (ip), vehicle: saline
[8] = dose: 100.0 mg/kg/injection, schedule: Q04DX002 (ip), vehicle: Klucel (hydroxypropylcellulose) (HPC)
[9] = dose: 200.0 mg/kg/injection, schedule: Q04DX002 (ip), vehicle: Klucel (hydroxypropylcellulose) (HPC)
[10] = dose: 400.0 mg/kg/injection, schedule: Q04DX002 (ip), vehicle: Klucel (hydroxypropylcellulose) (HPC)
[11] = dose: 100.0 mg/kg/injection, schedule: Q04DX003 (ip), vehicle: Klucel (hydroxypropylcellulose) (HPC)
[12] = dose: 200.0 mg/kg/injection, schedule: Q04DX003 (ip), vehicle: Klucel (hydroxypropylcellulose) (HPC)
[13] = dose: 400.0 mg/kg/injection, schedule: Q04DX003 (ip), vehicle: Klucel (hydroxypropylcellulose) (HPC)
[14] = dose: 50.0 mg/kg/injection, schedule: Q04DX002 (ip), vehicle: Klucel (hydroxypropylcellulose) (HPC)
[15] = dose: 400.0 mg/kg/injection, schedule: Q04DX003 (ip), vehicle: saline
[16] = dose: 100.0 mg/kg/injection, schedule: Q01DX001 (ip), vehicle: saline
[17] = dose: 200.0 mg/kg/injection, schedule: Q01DX001 (ip), vehicle: saline
[18] = dose: 400.0 mg/kg/injection, schedule: Q01DX001 (ip), vehicle: saline

Measured: T/C

Cc1noc2nc(Cl)cnc12
inactive: dose: 100.0 mg/kg/injection, schedule: Q01DX009 (ip), vehicle: saline with Tween-80 109 % of control | [1] 94 % of control | dose: 200.0 mg/kg/injection, schedule: Q01DX009 (ip), vehicle: saline with Tween-80 110 % of control | [2] 102 % of control | dose: 400.0 mg/kg/injection, schedule: Q01DX009 (ip), vehicle: saline with Tween-80 104 % of control | [3] 94 % of control

CCN(CC)CCOB(OCCN(CC)CC)OCCN(CC)CC
inactive: [4] 95 % of control and 101 % of control | dose: 50.0 mg/kg/injection, schedule: Q04DX003 (ip), vehicle: saline 96 % of control | [5] 101 % of control and 110 % of control | dose: 100.0 mg/kg/injection, schedule: Q04DX002 (ip), vehicle: saline 101 % of control and 106 % of control | [6] 96 % of control | dose: 200.0 mg/kg/injection, schedule: Q01DX009 (ip), vehicle: saline 97 % of control and 103 % of control | dose: 200.0 mg/kg/injection, schedule: Q04DX002 (ip), vehicle: saline 101 % of control and 103 % of control | [7] 100 % of control | dose: 400.0 mg/kg/injection, schedule: Q04DX002 (ip), vehicle: saline 95 % of control

[Si]C1CCCCC1
inactive: dose: 100.0 mg/kg/injection, schedule: Q01DX001 (ip), vehicle: saline with Tween-80 96 % of control | dose: 200.0 mg/kg/injection, schedule: Q01DX001 (ip), vehicle: saline with Tween-80 89 % of control | dose: 400.0 mg/kg/injection, schedule: Q01DX001 (ip), vehicle: saline with Tween-80 96 % of control

CC#CCCC(=O)OCC
inactive: [8] 104 % of control | [9] 106 % of control | [10] 95 % of control

CC(=O)CC(=O)Nc1cccc([N+](=O)[O-])c1
inactive: dose: 100.0 mg/kg/injection, schedule: Q01DX009 (ip), vehicle: Klucel (hydroxypropylcellulose) (HPC) 98 % of control | [11] 97 % of control | [12] 91 % of control | [13] 93 % of control

FC(F)(F)c1nc2ccccc2[nH]1
inactive: [14] 86 % of control | [8] 100 % of control | [9] 93 % of control

Nc1ccc(CC(=O)O)c(N)c1
inactive: [8] 87 % of control | [9] 97 % of control | [10] 97 % of control

O=C(O)C(O)Cc1ccccc1 (centres undefined)
inactive: dose: 90.0 mg/kg/injection, schedule: Q04DX003 (ip), vehicle: saline 105 % of control | [6] 100 % of control and 107 % of control | dose: 135.0 mg/kg/injection, schedule: Q04DX003 (ip), vehicle: saline 100 % of control | [7] 102 % of control and 107 % of control | dose: 300.0 mg/kg/injection, schedule: Q04DX003 (ip), vehicle: saline 92 % of control | [15] 106 % of control

CCCCCCCCC(=O)N(C)CCO
inactive: dose: 25.0 mg/kg/injection, schedule: Q01DX009 (ip), vehicle: saline 104 % of control | [4] 96 % of control | [5] 100 % of control | [6] 109 % of control | [2] 95 % of control | [7] 98 % of control

NC(=O)/C(=C\c1ccc([N+](=O)[O-])o1)c1ccco1
inactive: dose: 55.0 mg/kg/injection, schedule: Q01DX Z (ip), vehicle: methylcellulose (MC) 93 % of control | dose: 83.0 mg/kg/injection, schedule: Q01DX Z (ip), vehicle: methylcellulose (MC) 98 % of control | dose: 125.0 mg/kg/injection, schedule: Q01DX Z (ip), vehicle: methylcellulose (MC) 100 % of control

CCN(CC)CCOc1ccc(-c2nc3cc(Cl)ccc3s2)cc1
inactive: dose: 15.0 mg/kg/injection, schedule: Q01DX015 (ip), vehicle: saline 95 % of control | dose: 30.0 mg/kg/injection, schedule: Q01DX015 (ip), vehicle: saline 94 % of control | dose: 60.0 mg/kg/injection, schedule: Q01DX015 (ip), vehicle: saline 94 % of control | dose: 120.0 mg/kg/injection, schedule: Q01DX015 (ip), vehicle: saline 91 % of control

O=[N+]([O-])c1cc(-c2ccccc2)cc([N+](=O)[O-])c1Cl
inactive: dose: 50.0 mg/kg/injection, schedule: Q01DX009 (ip), vehicle: acetone 97 % of control | dose: 100.0 mg/kg/injection, schedule: Q01DX009 (ip), vehicle: acetone 100 % of control | [6] 96 % of control | dose: 200.0 mg/kg/injection, schedule: Q01DX009 (ip), vehicle: acetone 95 % of control | [7] 102 % of control | [15] 102 % of control

S=C(Nc1ccc(Cl)c(Cl)c1)SCc1ccc2c(c1)OCO2
inactive: dose: 37.5 mg/kg/injection, schedule: Q01DX009 (ip), vehicle: saline 120 % of control | dose: 75.0 mg/kg/injection, schedule: Q04DX003 (ip), vehicle: saline with Tween-80 101 % of control | dose: 150.0 mg/kg/injection, schedule: Q01DX009 (ip), vehicle: saline 102 % of control | dose: 150.0 mg/kg/injection, schedule: Q04DX003 (ip), vehicle: saline with Tween-80 104 % of control | dose: 300.0 mg/kg/injection, schedule: Q04DX003 (ip), vehicle: saline with Tween-80 123 % of control

CC1(C)C(=C(C#N)C#N)C(C)(C)C1=C(C#N)C#N
inactive: [16] 114 % of control | [17] 96 % of control | [18] 90 % of control

Cc1ccc(N2C(N)=NC(N)=NC2(C)C)cc1
inactive: dose: 12.5 mg/kg/injection, schedule: Q01DX001 (ip), vehicle: saline 100 % of control | dose: 25.0 mg/kg/injection, schedule: Q01DX001 (ip), vehicle: saline 100 % of control

Oc1ccc(-c2ccccc2)cc1O
inactive: [16] 105 % of control | [17] 109 % of control | [18] 109 % of control

COC(=O)CN(C(=S)c1ccccc1)c1ccccc1
inactive: [11] 104 % of control | [12] 96 % of control | [13] 94 % of control

O=c1[nH]cnc2c1ncn2CCCCc1ccccc1
inactive: [8] 108 % of control | [9] 101 % of control | [10] 105 % of control

O=C(Nc1cccc(C2=NCC(O)CN2)c1)c1ccc(C(=O)Nc2cccc(C3=NCC(O)CN3)c2)c(Cl)c1 (centres undefined)
inactive: dose: 6.25 mg/kg/injection, schedule: Q01DX Z (ip), vehicle: water 95 % of control

Cc1cn(C2CCCO2)c(=O)nc1NO (centres undefined)
inactive: dose: 100.0 mg/kg/injection, schedule: Q01DX001 (ip), vehicle: carboxymethylcellulose (CMC) 104 % of control | dose: 200.0 mg/kg/injection, schedule: Q01DX001 (ip), vehicle: carboxymethylcellulose (CMC) 95 % of control | dose: 400.0 mg/kg/injection, schedule: Q01DX001 (ip), vehicle: carboxymethylcellulose (CMC) 98 % of control

O=C(CCN1CCC2CCC(C2)C1)c1ccccc1C(F)(F)F (centres undefined)
inactive: dose: 50.0 mg/kg/injection, schedule: Q01DX001 (ip), vehicle: carboxymethylcellulose (CMC) 101 % of control

O=C(Nc1ccccc1)Oc1ccc(Br)cc1Br
inactive: dose: 75.0 mg/kg/injection, schedule: Q01DX001 (ip), vehicle: saline 94 % of control | dose: 150.0 mg/kg/injection, schedule: Q01DX001 (ip), vehicle: saline 89 % of control | dose: 300.0 mg/kg/injection, schedule: Q01DX001 (ip), vehicle: saline 94 % of control

Nc1ncn(C(=S)Nc2ccccc2)n1
inactive: dose: 50.0 mg/kg/injection, schedule: Q01DX001 (ip), vehicle: saline 102 % of control | [16] 98 % of control | [17] 98 % of control | [18] 98 % of control

CCN(CC)CCN(CC)C(=O)C1C(c2ccccc2)C1c1ccccc1 (centres undefined)
inactive: dose: 25.0 mg/kg/injection, schedule: Q04DX002 (ip), vehicle: Klucel (hydroxypropylcellulose) (HPC) 102 % of control | [14] 102 % of control

CC(C)CCC1=C(O)c2ccccc2C(=O)C1=O
inactive: dose: 30.0 mg/kg/injection, schedule: Q01DX015 (ip), vehicle: water 100 % of control | dose: 35.0 mg/kg/injection, schedule: Q01DX015 (ip), vehicle: water 106 % of control | dose: 45.0 mg/kg/injection, schedule: Q01DX015 (ip), vehicle: water 95 % of control | dose: 70.0 mg/kg/injection, schedule: Q01DX015 (ip), vehicle: water 103 % of control

O=c1c2cccc3c2-c2c4c(cccc14)cc1cccc(c3=O)c21
inactive: [1] 94 % of control | [2] 89 % of control | [3] 100 % of control

Cc1ccc(S(=O)(=O)N(C)c2ccc(N(C)S(=O)(=O)c3ccc(C)cc3)cc2)cc1
inactive: [11] 97 % of control | [12] 97 % of control | [13] 97 % of control
